Measured values from ChEMBL document CHEMBL6153170 (J Med Chem, 2025).
The source made the active and inactive calls. No cut-off for these calls is given here.

How the values were obtained:
[1] = Toxicity in C57 mouse assessed as myelosuppression by measuring hemoglobin level at 20 mg/kg/day, IG administered for 14 days by heat map analysis; format: organism-based; settings: in vivo, po, 336 h, time 14 day
[2] = target: T1, Histone deacetylase 3 (Mus musculus) (UniProt O88895); assay: Inhibition of HDAC3 in mouse B16-F10 cells assessed as increase in acetylated H3 level incubated for 12 hrs by Western blot analysis; format: cell-based
T1 sequence (whole entry): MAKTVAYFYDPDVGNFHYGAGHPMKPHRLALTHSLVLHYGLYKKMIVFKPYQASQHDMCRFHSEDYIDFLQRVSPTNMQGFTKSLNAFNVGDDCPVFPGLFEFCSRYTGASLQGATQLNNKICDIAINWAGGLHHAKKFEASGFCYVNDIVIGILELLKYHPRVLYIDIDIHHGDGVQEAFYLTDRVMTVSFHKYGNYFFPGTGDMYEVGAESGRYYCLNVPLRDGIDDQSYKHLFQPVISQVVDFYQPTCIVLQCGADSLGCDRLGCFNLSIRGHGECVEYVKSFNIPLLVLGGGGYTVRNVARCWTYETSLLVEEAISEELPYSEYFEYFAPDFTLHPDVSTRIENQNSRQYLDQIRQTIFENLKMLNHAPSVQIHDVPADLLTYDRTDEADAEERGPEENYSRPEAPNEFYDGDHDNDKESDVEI

[3] = Oral bioavailability in male Sprague-Dawley rat at 10 mg/kg measured after 48 hrs by triple quadrupole mass spectrometric analysis; format: ADME, organism-based; settings: in vivo
[4] = Half-life in male Sprague-Dawley rat at 2 mg/kg, iv measured after 48 hrs by triple quadrupole mass spectrometric analysis; format: ADME, organism-based; settings: in vivo
B16-F10 [5] = assay: Effect on HDAC6 protein level in mouse B16-F10 cells at 0.1 to 2 uM incubated for 12 hrs by Western blot analysis; format: functional, cell-based; settings: dose 0.1-2 µM
B16-F10 [6] = assay: Effect on STAT3 expression level in mouse B16-F10 cells at 0.1 to 2 uM incubated for 24 hrs by Western blot analysis; format: functional, cell-based; settings: dose 0.1-2 µM
[7] = Toxicity in C57BL/6 mouse model implanted with mouse B16-F10 cells assessed as morphological changes in kidney at 20 mg/kg/day, ip administered for 14 days by H and E staining based analysis; format: organism-based; settings: in vivo, 336 h, time 14 day
[8] = Toxicity in C57 mouse assessed as myelosuppression by measuring WBC level at 20 mg/kg/day, IG administered for 14 days by heat map analysis; format: organism-based; settings: in vivo, po, 336 h, time 14 day
Histone deacetylase 8 = target: T2, Histone deacetylase 8 (Homo sapiens, UniProt Q9BY41); assay: Inhibition of C-terminal His-tagged recombinant full length human HDAC8 extracted from baculovirus infected Sf9 insect cells preincubated for 5 mins followed by substrate addition and measured after 30 mins by fluorescence microplate reader analysis
T2 sequence (Q9BY41 whole entry): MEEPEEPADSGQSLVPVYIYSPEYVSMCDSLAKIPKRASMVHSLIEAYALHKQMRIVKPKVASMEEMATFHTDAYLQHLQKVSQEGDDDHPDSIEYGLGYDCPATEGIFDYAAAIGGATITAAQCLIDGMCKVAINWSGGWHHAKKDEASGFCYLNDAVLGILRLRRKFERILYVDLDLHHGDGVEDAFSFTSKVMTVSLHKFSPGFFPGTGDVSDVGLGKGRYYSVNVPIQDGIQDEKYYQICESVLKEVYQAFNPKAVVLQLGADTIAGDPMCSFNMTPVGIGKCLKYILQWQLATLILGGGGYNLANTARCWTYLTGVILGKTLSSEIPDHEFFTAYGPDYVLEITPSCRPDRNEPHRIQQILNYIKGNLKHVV

[9] = Toxicity in C57 mouse assessed as myelosuppression by measuring MPV level at 20 mg/kg/day, IG administered for 14 days by heat map analysis; format: organism-based; settings: in vivo, po, 336 h, time 14 day
HepG2 = assay: cells; settings: Homo sapiens, HepG2, 48 h
[10] = target: Programmed cell death 1 ligand 1 (Mus musculus, UniProt Q9EP73); assay: Binding affinity to C-terminal 6His-tagged recombinant mouse PD-L1 (1 to 238 residues) expressed in HEK293 cells assessed as dissociation constant by ITC analysis
Programmed cell death 1 ligand 1, sequence (Q9EP73 whole entry, the tested form may be a part): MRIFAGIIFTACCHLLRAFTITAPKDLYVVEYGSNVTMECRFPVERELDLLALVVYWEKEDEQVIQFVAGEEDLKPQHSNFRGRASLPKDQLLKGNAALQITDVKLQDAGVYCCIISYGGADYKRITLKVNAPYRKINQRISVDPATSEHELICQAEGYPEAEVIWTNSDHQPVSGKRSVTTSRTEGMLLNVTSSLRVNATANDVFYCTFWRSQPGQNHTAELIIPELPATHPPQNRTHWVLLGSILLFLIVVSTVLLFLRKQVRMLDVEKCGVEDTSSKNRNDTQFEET

[11] = target: Histone deacetylase 3 (Homo sapiens) (UniProt O15379); assay: Inhibition of HDAC3 in human Jurkat T cells assessed as increase in acetylated H3 level incubated for 12 hrs by Western blot analysis; format: cell-based
Histone deacetylase 3 (Homo sapiens), sequence (O15379 whole entry): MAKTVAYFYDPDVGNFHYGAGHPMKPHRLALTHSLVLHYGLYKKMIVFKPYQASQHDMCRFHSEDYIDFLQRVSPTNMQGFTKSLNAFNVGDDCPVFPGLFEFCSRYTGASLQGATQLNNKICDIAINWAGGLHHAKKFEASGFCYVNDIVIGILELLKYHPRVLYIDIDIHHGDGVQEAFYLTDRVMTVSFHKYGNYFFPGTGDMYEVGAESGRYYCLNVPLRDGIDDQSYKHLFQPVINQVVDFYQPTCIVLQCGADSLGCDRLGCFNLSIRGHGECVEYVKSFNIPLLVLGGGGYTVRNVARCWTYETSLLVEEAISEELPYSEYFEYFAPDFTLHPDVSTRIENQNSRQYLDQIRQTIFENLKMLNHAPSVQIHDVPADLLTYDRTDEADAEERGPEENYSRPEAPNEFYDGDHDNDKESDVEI

B16-F10 [12] = assay: cells; settings: Mus musculus, B16-F10, 48 h
[13] = target: T3, Histone deacetylase 8 (Mus musculus) (UniProt Q8VH37); assay: Inhibition of HDAC8 in mouse B16-F10 cells assessed as increase in acetylated SMC3 level incubated for 12 hrs by Western blot analysis; format: cell-based
T3 sequence (whole entry): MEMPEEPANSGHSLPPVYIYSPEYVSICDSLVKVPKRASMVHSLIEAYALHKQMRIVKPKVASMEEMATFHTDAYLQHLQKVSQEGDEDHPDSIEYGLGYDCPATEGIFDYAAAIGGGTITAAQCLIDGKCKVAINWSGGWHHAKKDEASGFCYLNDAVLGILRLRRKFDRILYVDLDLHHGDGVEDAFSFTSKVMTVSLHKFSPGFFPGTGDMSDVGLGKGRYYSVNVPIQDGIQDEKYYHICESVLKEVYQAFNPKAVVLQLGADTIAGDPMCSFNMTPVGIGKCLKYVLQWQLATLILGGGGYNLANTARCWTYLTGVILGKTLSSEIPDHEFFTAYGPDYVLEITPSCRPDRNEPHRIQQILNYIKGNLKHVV

B16-F10 [14] = assay: Antitumor activity against mouse B16-F10 cells implanted in C57BL/6 mouse model assessed as reduction in tumor weight at 20 mg/kg/day, ip administered for 14 days; format: functional, organism-based; settings: time 14.0 day
[15] = Tmax in male Sprague-Dawley rat at 2 mg/kg, iv measured after 48 hrs by triple quadrupole mass spectrometric analysis; format: ADME, organism-based; settings: in vivo
[16] = Toxicity in C57 mouse assessed as myelosuppression by measuring platelet level at 20 mg/kg/day, IG administered for 14 days by heat map analysis; format: organism-based; settings: in vivo, po, 336 h, time 14 day
[17] = In vivo inhibition of PD-L1 in C57BL/6 mouse model implanted with mouse B16-F10 cells assessed as reduction in PD-L1 protein expression in tumor at 20 mg/kg/day, ip co-administered with ACY-1215 for 14 days by Western blot analysis relative to control; format: functional; settings: C57BL/6, B16-F10, 336 h, time 14 day
[18] = Toxicity in C57 mouse assessed as myelosuppression by measuring neutrophil level at 20 mg/kg/day, IG administered for 14 days by heat map analysis; format: organism-based; settings: in vivo, po, 336 h, time 14 day
[19] = AUC (0 to infinity) in male Sprague-Dawley rat at 2 mg/kg, iv measured after 48 hrs by triple quadrupole mass spectrometric analysis; format: ADME, organism-based; settings: in vivo
[20] = target: Programmed cell death 1 ligand 1 (Mus musculus) (UniProt Q9EP73); assay: Binding affinity to C-terminal 6His-tagged recombinant mouse PD-L1 (1 to 238 residues) expressed in HEK293 cells assessed as change in secondary structure conformation at 2 uM incubated for 30 mins by CD spectra analysis; format: cell-based
Programmed cell death 1 ligand 1 (Mus musculus), sequence (Q9EP73 whole entry, the tested form may be a part): as the sequence (Q9EP73 whole entry, the tested form may be a part) above

[21] = MRT (0 to infinity) in male Sprague-Dawley rat at 10 mg/kg, po measured after 48 hrs by triple quadrupole mass spectrometric analysis; format: ADME, organism-based; settings: in vivo

SMILES: COc1nc(-c2cccc(-c3ccccc3)c2C)ccc1CNCCCCCCC(=O)NO
- Activity [1]: Non-toxic
- inhibition [2]: inactive
- bioavailability [3]: 15.3%
- half-life [4]: 414 min
- Activity (B16-F10 [5]): inactive
- Activity (B16-F10 [6]): inactive
- Activity [7]: Non-toxic
- Activity [8]: Non-toxic
- IC50 (Histone deacetylase 8): > 10 µM
- Activity [9]: Non-toxic
- IC50 (HepG2): 9.6 µM
- Kd [10]: 73 nM
- inhibition [11]: inactive
- IC50 (B16-F10 [12]): 8.1 µM
- inhibition [13]: inactive
- Activity (B16-F10 [14]): Active
- Tmax [15]: 4.8 min
- Activity [16]: Non-toxic
- inhibition in vivo at 20 mg/kg/day [17]: ~62%
- Activity [18]: Non-toxic
- AUC(0-inf) [19]: 1290 ng·h/mL
- Activity [20]: Active
- MRT inf [21]: 19.3 h
